The experiment has as its target T1, Arylsulfatase (EC 3.1.6.1) aus Aerobacter aerogenes (Klebsiella aerogenes, UniProt P20713).
T1 construct: purchased Sigma S-1629
T1 sequence (P20713 21-464): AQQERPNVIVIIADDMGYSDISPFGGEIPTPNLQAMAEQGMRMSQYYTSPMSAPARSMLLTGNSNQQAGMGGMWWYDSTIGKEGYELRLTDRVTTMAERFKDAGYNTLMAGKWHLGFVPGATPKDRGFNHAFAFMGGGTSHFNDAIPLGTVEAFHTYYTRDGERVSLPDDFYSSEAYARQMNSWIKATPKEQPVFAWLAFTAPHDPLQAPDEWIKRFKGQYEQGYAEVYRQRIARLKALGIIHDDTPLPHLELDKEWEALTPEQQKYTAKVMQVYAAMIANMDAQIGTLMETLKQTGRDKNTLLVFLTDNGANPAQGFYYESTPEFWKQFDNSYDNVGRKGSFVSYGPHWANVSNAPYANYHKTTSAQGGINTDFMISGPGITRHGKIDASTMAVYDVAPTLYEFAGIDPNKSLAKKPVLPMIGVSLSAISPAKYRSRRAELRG
As to the kind of experiment: Arylsulfatase enzyme inhibition test (Sigma sulfatase assay S-1629, p-nitrophenyl sulfate substrate, spectrophotometric at 420 nm). Type of experiment: biochemical. To be noted: raw material as supplied in aqueous solution; 187 mM Tris/HCl pH 7,1, 8 mM pNPS, 0,05 U/ml Arylsulfatase, 37°C. An excerpt:
Da die hautrelevante Arylsulfatase nicht zur Verfügung stand, diente eine handelsübliche Arylsulfatase (EC 3.1.6.1) aus Aerobacter aerogenes als Modellenzym, um die Hemmwirkung der erfindungsgemäß verwendeten Inhibitoren zu testen. Die Tests wurden mit dem Sulfatase-Enzymassay Product No. S-1629 von Sigma gemäß den Angaben im Sigma Quality Control Test Procedure-Datenblatt durchgeführt. Als Referenz-Inhibitoren dienten Ascorbinsäure und ATP.
Zur Auswertung wurde die Arylsulfatase-katalysierte Bildung von p-Nitrophenol aus dem Substrat p-Nitrophenylsulfat (pNPS) spektrophotometrisch (λ = 420 nm) verfolgt. Die Reaktionslösungen von 1000 µl, die auf eine Reaktionstemperatur von 37°C temperiert wurden, enthielten 187 mM Tris/HCl (pH 7,1), 8 mM pNPS und eine Startkonzentration von 0,05 U/ml Arylsulfatase. Die Einheit U der Enzymaktivität wurde so definiert, dass 1 U Sulfatase 1,0 µmol pNPS pro Minute bei pH 7,1 und 37°C hydrolysiert. Die Testdurchführung ist auch offenbart bei H.R. Fowler und D. H. Rammler, Biochemistry 3, 230, 1964.
Die Reaktion wurde durch Zugabe des Enzyms gestartet und der Anstieg der Absorption bei λ = 420 nm über 5 Minuten verfolgt. Der lineare Anstieg der Absorption (A) pro Zeiteinheit (t) ist hierbei ein Maß für die Aktivität des Enzyms (ΔA/Δt). Die Aktivität des Enzyms in Abwesenheit eines Inhibitors, (ΔA1/Δt1 ), wurde als Referenz gleich 100% gesetzt. […]

The structures appear in SMILES notation.

Take `COc1cc2c(cc1O)CCC(C)(C)O2` [Lipochroman-6, 3,4-Dihydro-7-methoxy-2,2-dimethyl-2H-1-benzopyran-6-ol]: the “Konzentration mit einer inhibierenden Wirkung von 50 %” value is listed as 0,1 Gew.-% Rohstoff tel quel in wässriger Lösung.

The values above are taken from EP1430879A2, “Arylsulfatase inhibitors in deodorants and antiperspirants” (Henkel Kommanditgesellschaft auf Aktien, priority 2002, dated 2004).
